Results taken from patent publication US10738028B2, “Spiro three-membered ring, spiro five-membered ring peptide deformylase inhibitor and use thereof in antibacteria and anti-tumor” (priority 2016, dated 2020).

Columns and labels:
Format in all cases: cell-based
[1] = tested on: HCT-116 colorectal cancer cell line; assay: CCK-8 proliferation inhibition; conditions: concentration of 30 μM, 72 hours, CCK-8
Summary of the method: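 Growth inhibition is read by CCK-8 (1:10 dilution) after 72 h of compound exposure. HCT-116 cells grow in McCoy's 5A containing 10% newborn bovine serum at 2000 cells/well, with 1‰ DMSO as vehicle control.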

[2] = tested on: Moraxella catarrhalis (BCA); assay: MIC, two-fold agar dilution (CLSI), clinical isolates
Summary of the method: (§1)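 Test samples were assayed by the CLSI-recommended two-fold agar dilution method, and the minimum inhibitory concentration against each tested strain was determined.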

[3] = tested on: Enterococcus faecalis (EFA); assay: as above
Summary of the method: as §1

[4] = tested on: methicillin-resistant Staphylococcus epidermidis (MRSE); assay: as above
Summary of the method: as §1

[5] = tested on: Enterococcus faecium (EFM); assay: as above
Summary of the method: as §1

[6] = tested on: methicillin-sensitive Staphylococcus epidermidis (MSSE); assay: as above
Summary of the method: as §1

[7] = tested on: Streptococcus pneoumoniae (SPN); assay: as above
Summary of the method: as §1

[8] = tested on: methicillin-resistant Staphylococcus aureus (MRSA); assay: as above
Summary of the method: as §1

[9] = tested on: Escherichia coli (including ESBLs, non-ESBLs); assay: as above
Summary of the method: as §1

[10] = tested on: methicillin-sensitive Staphylococcus aureus (MSSA); assay: as above
Summary of the method: as §1

[11] = tested on: A549 lung cancer cell line; assay: CCK-8 proliferation inhibition; conditions: concentration of 30 μM
Summary of the method: (§2)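 Plating at 2000 cells/well, then incubation overnight at 37° C. Next, a range of compound concentrations for 72 hours (control 1‰ DMSO). Finally, medium decanted and CCK-8 diluted 1:10 added.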

[12] = tested on: MGC-803 gastric cancer cell line; assay: CCK-8 proliferation inhibition; conditions: Homo sapiens, MGC-803, 72 h, concentration of 30 μM
Summary of the method: as §2

[13] = tested on: BEL-7402 liver cancer cell line; assay: CCK-8 proliferation inhibition; conditions: concentration of 30 μM
Summary of the method: as §2

`CCCC[C@H](CC(=O)NO)C(=O)N1CC2(CC2)C[C@H]1C(=O)Nc1nc(C(F)(F)F)cs1` [Example 57] gave an inhibition at 30 µM ([1]; Homo sapiens, HCT-116, 72 h, read-out: HCT116 inhibition rate/%) of over 50%, an HCT116 inhibition rate/% ([1]; 30 µM) of 52% and an Anti-bacterial activity (MIC), strain BCA 14-1 ([2]; clinical isolate BCA 14-1) of 0.5 mg/L. It also gave an Anti-bacterial activity (MIC), strain BCA 14-4 ([2]; clinical isolate BCA 14-4) of 0.5 mg/L, an Anti-bacterial activity (MIC), strain BCA 14-5 ([2]; clinical isolate BCA 14-5) of 0.5 mg/L and an Anti-bacterial activity (MIC), strain BCA 14-6 ([2]; clinical isolate BCA 14-6) of 1 mg/L. It also gave an Anti-bacterial activity (MIC), strain BCA 14-7 ([2]; clinical isolate BCA 14-7) of 0.25 mg/L, an Anti-bacterial activity (MIC), strain BCA 14-8 ([2]; clinical isolate BCA 14-8) of 0.25 mg/L and an Anti-bacterial activity (MIC), strain BCA 14-10 ([2]; clinical isolate BCA 14-10) of 0.25 mg/L. It also gave an Anti-bacterial activity (MIC), strain EFA 15-1 ([3]; clinical isolate EFA 15-1) of 8 mg/L, an Anti-bacterial activity (MIC), strain EFA 15-2 ([3]; clinical isolate EFA 15-2) of 8 mg/L and an Anti-bacterial activity (MIC), strain EFA 15-3 ([3]; clinical isolate EFA 15-3) of 8 mg/L. The Anti-bacterial activity (MIC), strain EFA 15-4 ([3]; clinical isolate EFA 15-4) was 8 mg/L, the Anti-bacterial activity (MIC), strain EFA 15-5 ([3]; clinical isolate EFA 15-5) was 8 mg/L and the Anti-bacterial activity (MIC), strain EFA 15-6 ([3]; clinical isolate EFA 15-6) was 8 mg/L. It also gave an Anti-bacterial activity (MIC), strain EFA 15-9 ([3]; clinical isolate EFA 15-9) of 8 mg/L, an Anti-bacterial activity (MIC), strain MRSE 15-1 ([4]; clinical isolate MRSE 15-1) of 0.125 mg/L and an Anti-bacterial activity (MIC), strain MRSE 15-2 ([4]; clinical isolate MRSE 15-2) of 0.125 mg/L. For the same compound, the Anti-bacterial activity (MIC), strain MRSE 15-3 ([4]; clinical isolate MRSE 15-3) was 0.125 mg/L, the Anti-bacterial activity (MIC), strain MRSE 15-7 ([4]; clinical isolate MRSE 15-7) was 0.25 mg/L and the Anti-bacterial activity (MIC), strain EFM 15-1 ([5]; clinical isolate EFM 15-1) was 1 mg/L. For the same compound, the Anti-bacterial activity (MIC), strain EFM 15-2 ([5]; clinical isolate EFM 15-2) was 2 mg/L, the Anti-bacterial activity (MIC), strain EFM 15-3 ([5]; clinical isolate EFM 15-3) was 0.25 mg/L and the Anti-bacterial activity (MIC), strain EFM 15-4 ([5]; clinical isolate EFM 15-4) was 1 mg/L. The Anti-bacterial activity (MIC), strain EFM 15-5 ([5]; clinical isolate EFM 15-5) was 0.5 mg/L, the Anti-bacterial activity (MIC), strain EFM 15-6 ([5]; clinical isolate EFM 15-6) was 4 mg/L and the Anti-bacterial activity (MIC), strain MSSE 15-3 ([6]; clinical isolate MSSE 15-3) was 0.25 mg/L. It also gave an Anti-bacterial activity (MIC), strain MSSE 15-4 ([6]; clinical isolate MSSE 15-4) of 0.125 mg/L, an Anti-bacterial activity (MIC), strain MSSE 15-5 ([6]; clinical isolate MSSE 15-5) of 0.125 mg/L and an Anti-bacterial activity (MIC), strain MSSE 15-6 ([6]; clinical isolate MSSE 15-6) of 0.06 mg/L. For the same compound, the Anti-bacterial activity (MIC), strain SPN 16-2 ([7]; clinical isolate SPN 16-2) was 2 mg/L, the Anti-bacterial activity (MIC), strain SPN 16-4 ([7]; clinical isolate SPN 16-4) was 0.25 mg/L and the Anti-bacterial activity (MIC), strain MRSA 15-1 ([8]; clinical isolate MRSA 15-1) was 0.5 mg/L. For the same compound, the Anti-bacterial activity (MIC), strain MRSA 15-2 ([8]; clinical isolate MRSA 15-2) was 0.5 mg/L, the Anti-bacterial activity (MIC), strain MRSA 15-3 ([8]; clinical isolate MRSA 15-3) was 0.5 mg/L and the Anti-bacterial activity (MIC), strain MRSA 15-4 ([8]; clinical isolate MRSA 15-4) was 0.5 mg/L. For the same compound, the Anti-bacterial activity (MIC), strain ECO+ 15-1 ([9]; clinical isolate ECO+ 15-1) was 32 mg/L, the Anti-bacterial activity (MIC), strain ECO+ 15-2 ([9]; clinical isolate ECO+ 15-2) was over 32 mg/L and the Anti-bacterial activity (MIC), strain ECO+ 15-3 ([9]; clinical isolate ECO+ 15-3) was over 32 mg/L. The Anti-bacterial activity (MIC), strain ECO+ 15-4 ([9]; clinical isolate ECO+ 15-4) was over 32 mg/L, the Anti-bacterial activity (MIC), strain ECO− 15-1 ([9]; clinical isolate ECO− 15-1) was over 32 mg/L and the Anti-bacterial activity (MIC), strain ECO− 15-2 ([9]; clinical isolate ECO− 15-2) was over 32 mg/L. The Anti-bacterial activity (MIC), strain ECO− 15-3 ([9]; clinical isolate ECO− 15-3) was over 32 mg/L, the Anti-bacterial activity (MIC), strain ECO− 15-4 ([9]; clinical isolate ECO− 15-4) was over 32 mg/L and the Anti-bacterial activity (MIC), strain MSSA 15-3 ([10]; clinical isolate MSSA 15-3) was 0.5 mg/L. It also gave an Anti-bacterial activity (MIC), strain MSSA 15-4 ([10]; clinical isolate MSSA 15-4) of 0.125 mg/L, an Anti-bacterial activity (MIC), strain MSSA 15-5 ([10]; clinical isolate MSSA 15-5) of 0.125 mg/L and an Anti-bacterial activity (MIC), strain MSSA 15-6 ([10]; clinical isolate MSSA 15-6) of 0.125 mg/L. The inhibition at 30 µM ([11]; Homo sapiens, A549, 72 h) was over 50%, the “Inhibition of proliferation, Lung cancer A549” value ([11]; 72 hours, 30 µM) was 52% and the inhibition at 30 µM [12] was 34%. The inhibition at 30 µM ([13]; Homo sapiens, Bel-7402, 72 h) was over 50% and the “Inhibition of proliferation, Liver cancer BEL-7402” value ([13]; 72 hours, 30 µM) was 57%.
